Measurements as given in ChEMBL document CHEMBL1671654, “In vivo activity of the pyrrolopyrazolyl-substituted oxazolidinone RWJ-416457” (Antimicrob Agents Chemother, 2009).
Calls of active or inactive are those of the source. The calls are words filed in the database; no cut-off is given here.

Experiments:
Staphylococcus aureus [1] = experiment: Antibacterial activity against community-associated methicillin-resistant Staphylococcus aureus OC8525 infected in po dosed Swiss Webster mouse administered at 1 to 3 hrs post infection measured after 3 days; assay type: functional
Mus musculus [2] = experiment: fAUC (0 to 24 hrs) in CF-1 mouse at 2 mg/kg, iv; assay type: ADME, organism-based; set-up: dose 2 mg/kg, route intravenous; settings: in vivo
Staphylococcus aureus [3] = experiment: Antibacterial activity against community-associated methicillin-resistant Staphylococcus aureus OC8525 infected in sc dosed Swiss Webster mouse administered at 1 to 3 hrs post infection measured after 3 days; assay type: functional
Mus musculus [4] = experiment: fCmax in CF-1 mouse at 2 mg/kg, iv; assay type: ADME, organism-based; set-up: dose 2 mg/kg, route intravenous; settings: in vivo
Streptococcus pneumoniae [5] = experiment: Antibacterial activity against penicillin-susceptible Streptococcus pneumoniae ATCC 6301 infected in iv dosed Swiss Webster mouse administered at 1 to 3 hrs post infection measured after 3 days; assay type: functional; settings: ATCC 6301, iv
[6] = AUC (0 to 24 hrs) in CF-1 mouse at 10 mg/kg, sc; assay type: ADME, organism-based; set-up: time < 24 hr, dose 10 mg/kg, route subcutaneous; settings: plasma
Staphylococcus aureus [7] = experiment: Antibacterial activity against methicillin-susceptible Staphylococcus aureus ATCC 13709 infected in iv dosed Swiss Webster mouse administered at 1 to 3 hrs post infection measured after 3 days; assay type: functional; settings: ATCC 13709, iv
[8] = Tmax in CF-1 mouse serum at 10 mg/kg, po; assay type: ADME, organism-based; set-up: dose 10 mg/kg, route oral
Streptococcus pneumoniae [9] = experiment: Antibacterial activity against penicillin-susceptible Streptococcus pneumoniae ATCC 6301 infected in sc dosed Swiss Webster mouse administered at 1 to 3 hrs post infection measured after 3 days; assay type: functional; settings: ATCC 6301, sc
[10] = Ratio of fAUC (24 hrs) for Methicillin-susceptible Staphylococcus aureus ATCC 13709 infected sc dosed mouse to MIC for Methicillin-susceptible Staphylococcus aureus ATCC 1370; assay type: functional
Mus musculus [11] = experiment: fAUC (0 to 24 hrs) in CF-1 mouse at 10 mg/kg, po; assay type: ADME, organism-based; set-up: dose 10 mg/kg, route oral; settings: in vivo
[12] = Apparent oral clearance in CF-1 mouse at 10 mg/kg, po; assay type: ADME, organism-based; set-up: dose 10 mg/kg, route oral; settings: in vivo
[13] = AUC (0 to 24 hrs) in CF-1 mouse at 2 mg/kg, iv; assay type: ADME, organism-based; set-up: time < 24 hr, dose 2 mg/kg, route intravenous; settings: plasma
[14] = Half life in CF-1 mouse at 2 mg/kg, iv; assay type: ADME, organism-based; set-up: dose 2 mg/kg, route intravenous; settings: in vivo
[15] = Ratio of fAUC (24 hrs) for penicillin-susceptible Streptococcus pneumoniae ATCC 6301 infected sc dosed mouse to MIC for penicillin-susceptible Streptococcus pneumoniae ATCC 6301; assay type: functional
Staphylococcus aureus [16] = experiment: Antibacterial activity against methicillin-susceptible Staphylococcus aureus ATCC 13709 infected in po dosed Swiss Webster mouse administered at 1 to 3 hrs post infection measured after 3 days; assay type: functional; settings: ATCC 13709, po
Streptococcus pneumoniae [17] = experiment: Antibacterial activity against penicillin-susceptible Streptococcus pneumoniae ATCC 6301 infected in po dosed CF-1 mouse administered at 24 hrs post infection measured after 48 hrs relative to Linezolid; assay type: functional; settings: Streptococcus pneumoniae, ATCC 6301, po
[18] = Tmax in CF-1 mouse serum at 10 mg/kg, sc; assay type: ADME, organism-based; set-up: dose 10 mg/kg, route subcutaneous
[19] = Clearance in CF-1 mouse at 2 mg/kg, iv; assay type: ADME, organism-based; set-up: dose 2 mg/kg, route intravenous; settings: in vivo
[20] = Cmax in CF-1 mouse at 10 mg/kg, sc; assay type: ADME, organism-based; set-up: dose 10 mg/kg, route subcutaneous; settings: in vivo
[21] = Cmax in CF-1 mouse at 10 mg/kg, po; assay type: ADME, organism-based; set-up: dose 10 mg/kg, route oral; settings: in vivo
[22] = Half life in CF-1 mouse at 10 mg/kg, po; assay type: ADME, organism-based; set-up: dose 10 mg/kg, route oral; settings: in vivo
[23] = Ratio of fAUC (24 hrs) for Methicillin-susceptible Staphylococcus aureus ATCC 13709 infected po dosed mouse to MIC for Methicillin-susceptible Staphylococcus aureus ATCC 1370; assay type: functional
[24] = Cmax in CF-1 mouse at 2 mg/kg, iv; assay type: ADME, organism-based; set-up: dose 2 mg/kg, route intravenous; settings: in vivo
[25] = Ratio of fAUC (24 hrs) for community-associated methicillin-resistant Staphylococcus aureus OC8525 infected po dosed mouse to MIC for community-associated methicillin-resistant Staphylococcus aureus OC8525; assay type: functional
Mus musculus [26] = experiment: fCmax in CF-1 mouse at 10 mg/kg, sc; assay type: ADME, organism-based; set-up: dose 10 mg/kg, route subcutaneous; settings: in vivo
[27] = Half life in CF-1 mouse at 10 mg/kg, sc; assay type: ADME, organism-based; set-up: dose 10 mg/kg, route subcutaneous; settings: in vivo
[28] = Ratio of fAUC (24 hrs) for community-associated methicillin-resistant Staphylococcus aureus OC8525 infected iv dosed mouse to MIC for community-associated methicillin-resistant Staphylococcus aureus OC8525; assay type: functional
Staphylococcus aureus [29] = experiment: Bacteriostatic activity against methicillin-susceptible Staphylococcus aureus Smith ATCC 13709 infected in SKH1 mouse upto 320 mg/kg/day, po administered post infection measured after 48 hrs; assay type: functional, organism-based
[30] = Apparent oral clearance in CF-1 mouse at 10 mg/kg, sc; assay type: ADME, organism-based; set-up: dose 10 mg/kg, route oral; settings: in vivo
Mus musculus [31] = experiment: fAUC (0 to 24 hrs) in CF-1 mouse at 10 mg/kg, sc; assay type: ADME, organism-based; set-up: dose 10 mg/kg, route subcutaneous; settings: in vivo
Mus musculus [32] = experiment: fCmax in CF-1 mouse at 10 mg/kg, po; assay type: ADME, organism-based; set-up: dose 10 mg/kg, route oral; settings: in vivo
Staphylococcus aureus [33] = experiment: Antibacterial activity against community-associated methicillin-resistant Staphylococcus aureus OC8525 infected in iv dosed Swiss Webster mouse administered at 1 to 3 hrs post infection measured after 3 days; assay type: functional
[34] = AUC (0 to 24 hrs) in CF-1 mouse at 10 mg/kg, po; assay type: ADME, organism-based; set-up: time < 24 hr, dose 10 mg/kg, route oral; settings: plasma
[35] = Ratio of fAUC (24 hrs) for penicillin-susceptible Streptococcus pneumoniae ATCC 6301 infected po dosed mouse to MIC for penicillin-susceptible Streptococcus pneumoniae ATCC 6301; assay type: functional
Staphylococcus aureus [36] = experiment: Antibacterial activity against methicillin-susceptible Staphylococcus aureus ATCC 13709 infected in sc dosed Swiss Webster mouse administered at 1 to 3 hrs post infection measured after 3 days; assay type: functional; settings: ATCC 13709, sc
[37] = Ratio of fAUC (24 hrs) for community-associated methicillin-resistant Staphylococcus aureus OC8525 infected sc dosed mouse to MIC for community-associated methicillin-resistant Staphylococcus aureus OC8525; assay type: functional
[38] = Ratio of fAUC (24 hrs) for Methicillin-susceptible Staphylococcus aureus ATCC 13709 infected iv dosed mouse to MIC for Methicillin-susceptible Staphylococcus aureus ATCC 1370; assay type: functional
Streptococcus pneumoniae [39] = experiment: Antibacterial activity against penicillin-susceptible Streptococcus pneumoniae ATCC 6301 infected in po dosed Swiss Webster mouse administered at 1 to 3 hrs post infection measured after 3 days; assay type: functional; settings: ATCC 6301, po
[40] = Ratio of fAUC (24 hrs) for penicillin-susceptible Streptococcus pneumoniae ATCC 6301 infected iv dosed mouse to MIC for penicillin-susceptible Streptococcus pneumoniae ATCC 6301; assay type: functional

CC(=O)NC[C@H]1CN(c2ccc(N3CCOCC3)c(F)c2)C(=O)O1 [LINEZOLID]
ED50 (Staphylococcus aureus [1]): 5.1 mg/kg/day | fAUC (Mus musculus [2]): 1400 ng·h/mL | ED50 (Staphylococcus aureus [3]): 3.7 mg/kg/day | fCmax (Mus musculus [4]): 2.3 µg/mL | ED50 (Streptococcus pneumoniae [5]): > 40 mg/kg/day | AUC(0-t) at 24 h [6]: 16000 ng·h/mL | ED50 (Staphylococcus aureus [7]): 6.3 mg/kg/day | Tmax [8]: ≤ 7.8 min | ED50 (Streptococcus pneumoniae [9]): 20 mg/kg/day | fAUC/MIC [10]: 5.3 | fAUC (Mus musculus [11]): 13000 ng·h/mL | CL/F [12]: 8.67 mL/min/kg | AUC(0-t) at 24 h [13]: 2100 ng·h/mL | half-life [14]: 30 min | fAUC/MIC [15]: 5.3 | ED50 (Staphylococcus aureus [16]): 6.4 mg/kg/day | ED50 (Streptococcus pneumoniae [17]): ≥ 14 mg/kg/day | Tmax [18]: ≤ 7.8 min | clearance [19]: 15.7 mL/min/kg | Cmax [20]: 11000 ng/mL | Cmax [21]: 8900 ng/mL | half-life [22]: 84 min | fAUC/MIC [23]: 6.6 | Cmax [24]: 3300 ng/mL | fAUC/MIC [25]: 3.3 | fCmax (Mus musculus [26]): 7.1 µg/mL | half-life [27]: 48 min | fAUC/MIC [28]: 1.8 | Activity (Staphylococcus aureus [29]): Active | CL/F [30]: 10.7 mL/min/kg | fAUC (Mus musculus [31]): 11000 ng·h/mL | fCmax (Mus musculus [32]): 6 µg/mL | ED50 (Staphylococcus aureus [33]): 8.5 mg/kg/day | AUC(0-t) at 24 h [34]: 19000 ng·h/mL | fAUC/MIC [35]: 6.6 | ED50 (Staphylococcus aureus [36]): 7 mg/kg/day | fAUC/MIC [37]: 2.6 | fAUC/MIC [38]: 3.6 | ED50 (Streptococcus pneumoniae [39]): 14 mg/kg/day | fAUC/MIC [40]: 3.6
